Experimental data from US20130040935A1, “CYCLIC KETO-ENOLS FOR THERAPY” (BAYER INTELLECTUAL PROPERTY GMBH, priority 2010, published 2013).
Read-outs that look alike come from different tables or passages of the source.

Legend:
[1] = target: T1, human ACC1 (acetyl-coenzyme A carboxylase alpha transcript variant 1) (Homo sapiens, UniProt Q13085); test: Human ACC1 enzyme assay, Assay B1 (ADP-Glo); format: biochemical
T1 construct: FLAG (C); made in house; host or cells: baculovirus-infected insect cells (Hi5)

[2] = target: human ACC2 (acetyl-coenzyme A carboxylase 2) (Homo sapiens, UniProt O00763); test: Human ACC2 enzyme assay, Assay B2 (ADP-Glo);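 note: human ACC2 activity read as ADP product, detected by luciferase glow luminescence after residual ATP removal, enzyme near 2 ng/µl in linear range, detection steps at 22 °C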
Chain of human ACC2 (acetyl-coenzyme A carboxylase 2) (O00763 27-2458 limits assumed): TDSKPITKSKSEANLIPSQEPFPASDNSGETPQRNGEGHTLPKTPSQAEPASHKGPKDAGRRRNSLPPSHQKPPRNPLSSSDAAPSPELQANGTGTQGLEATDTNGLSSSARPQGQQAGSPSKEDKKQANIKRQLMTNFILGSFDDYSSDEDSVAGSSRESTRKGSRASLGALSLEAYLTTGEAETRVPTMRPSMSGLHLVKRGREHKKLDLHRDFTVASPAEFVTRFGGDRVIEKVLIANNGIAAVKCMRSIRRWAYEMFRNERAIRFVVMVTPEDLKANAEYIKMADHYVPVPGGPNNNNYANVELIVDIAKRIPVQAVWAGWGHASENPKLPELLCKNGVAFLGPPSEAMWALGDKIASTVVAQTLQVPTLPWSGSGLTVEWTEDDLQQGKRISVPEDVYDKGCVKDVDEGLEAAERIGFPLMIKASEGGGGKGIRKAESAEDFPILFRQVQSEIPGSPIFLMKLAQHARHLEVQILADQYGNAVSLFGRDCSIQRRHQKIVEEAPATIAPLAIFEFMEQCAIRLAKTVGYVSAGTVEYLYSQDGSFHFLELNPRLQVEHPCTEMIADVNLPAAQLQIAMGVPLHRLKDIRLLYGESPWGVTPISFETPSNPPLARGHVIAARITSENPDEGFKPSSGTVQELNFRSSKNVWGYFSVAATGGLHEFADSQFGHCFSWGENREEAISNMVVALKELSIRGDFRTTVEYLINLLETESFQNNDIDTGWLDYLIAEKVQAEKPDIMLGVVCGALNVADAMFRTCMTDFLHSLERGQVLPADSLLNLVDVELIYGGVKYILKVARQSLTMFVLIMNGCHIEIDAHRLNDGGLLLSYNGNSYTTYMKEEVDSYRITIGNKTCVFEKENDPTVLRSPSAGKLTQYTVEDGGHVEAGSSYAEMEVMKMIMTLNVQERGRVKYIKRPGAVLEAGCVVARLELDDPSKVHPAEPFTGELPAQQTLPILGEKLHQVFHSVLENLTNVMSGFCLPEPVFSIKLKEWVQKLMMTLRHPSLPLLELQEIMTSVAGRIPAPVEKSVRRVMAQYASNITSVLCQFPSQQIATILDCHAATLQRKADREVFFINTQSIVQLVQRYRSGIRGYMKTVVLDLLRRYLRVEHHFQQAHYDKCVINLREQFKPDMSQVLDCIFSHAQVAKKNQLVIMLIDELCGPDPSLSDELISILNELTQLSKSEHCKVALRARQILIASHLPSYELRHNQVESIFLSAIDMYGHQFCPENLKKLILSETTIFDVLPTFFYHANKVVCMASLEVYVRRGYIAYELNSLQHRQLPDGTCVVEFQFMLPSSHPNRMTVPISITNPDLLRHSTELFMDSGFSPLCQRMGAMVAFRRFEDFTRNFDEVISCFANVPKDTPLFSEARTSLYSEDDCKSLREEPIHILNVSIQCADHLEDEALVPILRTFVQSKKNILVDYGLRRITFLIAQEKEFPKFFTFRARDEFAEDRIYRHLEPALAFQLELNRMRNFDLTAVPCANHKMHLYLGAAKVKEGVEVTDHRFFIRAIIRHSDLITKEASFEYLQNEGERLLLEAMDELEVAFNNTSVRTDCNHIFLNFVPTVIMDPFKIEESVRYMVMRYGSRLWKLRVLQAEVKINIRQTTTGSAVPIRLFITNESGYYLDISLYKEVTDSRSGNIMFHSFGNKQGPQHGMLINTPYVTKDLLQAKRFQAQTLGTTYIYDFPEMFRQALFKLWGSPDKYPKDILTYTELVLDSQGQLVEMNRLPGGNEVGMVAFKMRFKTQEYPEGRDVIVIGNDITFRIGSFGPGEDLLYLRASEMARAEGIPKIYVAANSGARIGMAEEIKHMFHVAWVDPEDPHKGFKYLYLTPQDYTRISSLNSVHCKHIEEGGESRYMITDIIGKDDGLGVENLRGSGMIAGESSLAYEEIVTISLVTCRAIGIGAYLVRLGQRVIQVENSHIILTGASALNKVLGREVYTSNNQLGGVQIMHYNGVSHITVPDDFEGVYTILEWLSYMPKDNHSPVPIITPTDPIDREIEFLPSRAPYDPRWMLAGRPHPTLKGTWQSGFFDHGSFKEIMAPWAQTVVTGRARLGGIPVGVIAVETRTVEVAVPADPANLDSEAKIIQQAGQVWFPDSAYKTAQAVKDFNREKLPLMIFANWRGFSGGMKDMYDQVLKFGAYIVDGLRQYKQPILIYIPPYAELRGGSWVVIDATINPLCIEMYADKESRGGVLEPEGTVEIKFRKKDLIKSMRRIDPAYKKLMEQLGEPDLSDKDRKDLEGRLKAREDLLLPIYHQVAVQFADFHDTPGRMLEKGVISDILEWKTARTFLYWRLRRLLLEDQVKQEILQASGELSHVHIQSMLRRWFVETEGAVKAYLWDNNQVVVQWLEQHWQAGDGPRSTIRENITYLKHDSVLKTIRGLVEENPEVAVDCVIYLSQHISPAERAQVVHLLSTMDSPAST

[3] = Assay B1, read-out: ACC 1 (=B1) IC50

IC50 [2] [nM]	IC50 [1, 3] [nM]	Compound	IC50 [1] [nM]
5200	918	Cc1ccc(-c2ccc(Cl)cc2)cc1C1=C(O)C2(CCC3(CC2)OCC(C)(C)CO3)NC1=O [1-67, 3-(4′-chloro-4-methylbiphenyl-3-yl)-4-hydroxy-11,11-dimethyl-9,13-dioxa-1-azadispiro[4.2.5.2]pentadec-3-en-2-one]	–
> 20000	838	CC1COC2(CCC3(CC2)NC(=O)C(c2cc(-c4ccc(Cl)cc4)ccc2Cl)=C3O)OC1 (stereo not shown) [1-69, 3-(4,4′-dichlorobiphenyl-3-yl)-4-hydroxy-11-methyl-9,13-dioxa-1-azadispiro[4.2.5.2]pentadec-3-en-2-one]	–
> 20000	563	CCOC1CCCC2(C1)NC(=O)C(c1c(C)ccc(-c3ccc(Cl)cc3)c1C)=C2O (stereo not shown) [1-73, 3-(4′-chloro-2,4-dimethylbiphenyl-3-yl)-7-ethoxy-4-hydroxy-1-azaspiro[4.5]dec-3-en-2-one]	–
8120	958	Cc1ccc(-c2ccc(Cl)cc2)cc1C1=C(O)C(C)(C(C)C)NC1=O (stereo not shown) [1-78, 3-(4′-chloro-4-methylbiphenyl-3-yl)-4-hydroxy-5-methyl-5-(propan-2-yl)-1,5-dihydro-2H-pyrrol-2-one]	–
1880	582	CCCC1CCC2(CC1)NC(=O)C(c1cc(-c3ccc(Cl)cc3)ccc1C)=C2O (stereo not shown) [1-83, 3-(4′-chloro-4-methylbiphenyl-3-yl)-4-hydroxy-8-propyl-1-azaspiro[4.5]dec-3-en-2-one]	–
> 20000	650	Cc1ccc(-c2ccc(Cl)cc2)cc1C1=C(O)C2(CC2)NC1=O [1-84, 6-(4′-chloro-4-methylbiphenyl-3-yl)-7-hydroxy-4-azaspiro[2.4]hept-6-en-5-one]	–
9210	251	Cc1ccc(-c2ccc(Cl)cc2)cc1C1=C(O)C2(CCCC2)NC1=O [1-85, 3-(4′-chloro-4-methylbiphenyl-3-yl)-4-hydroxy-1-azaspiro[4.4]non-3-en-2-one]	–
6120	575	Cc1ccc(-c2ccc(Cl)cc2)cc1C1=C(O)C(C)(C2CC2)NC1=O (stereo not shown) [1-86, 3-(4′-chloro-4-methylbiphenyl-3-yl)-5-cyclopropyl-4-hydroxy-5-methyl-1,5-dihydro-2H-pyrrol-2-one]	–

Compound	IC50 [2] [nM]	IC50 [1, 3] [nM]	IC50 [1] [nM]
Cc1ccc(-c2ccc(Cl)cc2)cc1C1=C(O)C2(CCC3(CC2)OCC(C)CO3)NC1=O (stereo not shown) [1-66, 3-(4′-chloro-4-methylbiphenyl-3-yl)-4-hydroxy-11-methyl-9,13-dioxa-1-azadispiro[4.2.5.2]pentadec-3-en-2-one]	3130	–	493
CC1COC2(CCC3(CC2)NC(=O)C(c2cc(-c4ccc(Cl)cc4)ccc2Cl)=C3O)O1 (stereo not shown) [1-68, 11-(4,4′-dichlorobiphenyl-3-yl)-12-hydroxy-2-methyl-1,4-dioxa-9-azadispiro[4.2.4.2]tetradec-11-en-10-one]	5900	–	547
Cc1ccc(-c2ccc(Cl)cc2)c(C)c1C1=C(O)C2(CCC3(CC2)OCCO3)NC1=O [1-70, 11-(4′-chloro-2,4-dimethylbiphenyl-3-yl)-12-hydroxy-1,4-dioxa-9-azadispiro[4.2.4.2]tetradec-11-en-10-one]	2920	–	286
COC1CCCC2(C1)NC(=O)C(c1c(C)ccc(-c3ccc(Cl)cc3)c1C)=C2O (stereo not shown) [1-72, 3-(4′-chloro-2,4-dimethylbiphenyl-3-yl)-4-hydroxy-7-methoxy-1-azaspiro[4.5]dec-3-en-2-one]	14900	–	1140
CCOC1CCC2(CC1)NC(=O)C(c1c(C)cc(C)c(-c3ccc(Cl)cc3)c1C)=C2O (stereo not shown) [1-75, 3-(4′-chloro-2,4,6-trimethylbiphenyl-3-yl)-8-ethoxy-4-hydroxy-1-azaspiro[4.5]dec-3-en-2-one]	803	–	5680
Cc1ccc(-c2ccc(Cl)cc2)cc1C1=C(O)C2(CCCC(C)C2)NC1=O (stereo not shown) [1-82, 3-(4′-chloro-4-methylbiphenyl-3-yl)-4-hydroxy-7-methyl-1-azaspiro[4.5]dec-3-en-2-one]	1320	539	–
